Reference: US20260297627A1, “MODULATION OF GLOBAL REGULATORY MECHANISMS AND BIOSYNTHETIC GENE CLUSTERS FOR SIMPLIFIED PRODUCTION OF NATURAL PRODUCTS” (priority 2023, published 2026)
Entries after “also recorded” stand apart in the source; their conditions may differ.

Legend:
[1] = tested on: X. indica ΔrpmM-O mutant with vector expressing rpmO (strain IX); conditions: 3,4-AHBA and IPTG; compared to empty vector control
Experimental: (§1) Addition of the inducer and benzoic acid was added from the start. The numbering I-IX corresponds to the strains in FIG. 12. A: growth of strain I culture with and without induction (1 mM IPTG), with and without addition of 3,4-AHBA. B: growth of strain V culture with and without induction, with and without addition of 3,4-AHBA. C: growth of strain I culture with and without induction, with and without addition of 3,4-DHBA. D: growth of strain V culture with and without induction, with and without addition of 3,4-DHBA. E: growth of induced and 3,4-AHBA supplemented strain VIII culture with vector expressing rpmMN or empty expression vector. F: growth of induced and 3,4-AHBA supplemented strain IX culture with vector expressing rpmO or empty expression vector.
(§2) Which of the rpmM-O genes are responsible for resistance to the biosynthesis product of the rpm BGC was the question addressed in the following studies. […] The influence of the vector was excluded by conjugating an empty vector into the strains as a control. […] Production of rupshomycins were performed in XPP3 medium with 2% (v/v) XAD-16 for in situ extraction.

[2] = tested on: X. indica ΔrpmM-O mutant with empty vector; conditions: 3,4-AHBA and IPTG; empty vector control
Experimental: as §1, §2

[3] = tested on: X. indica ΔrpmM-O mutant with vector expressing rpmM and rpmN (strain VIII); conditions: 3,4-AHBA and IPTG; compared to empty vector control
Experimental: as §1, §2

X. indica strain V = experiment: Growth curve of X. indica strain V with fed benzoic acid derivative; format: cell-based, Xenorhabdus indica; conditions: with and without 3,4-AHBA, in presence or not of IPTG
Experimental: (§3) In order to analyze the growth curve, the strains were cultured in microtiter plates in a Tecan Spark microplate reader (FIG. 14). A comparison was initially made between strain V and strain VII with and without the addition of 3,4-AHBA (FIGS. 14 A and B). Furthermore, to investigate the sole effect of 3,4-AHBA on the cells, 3,4-AHBA was added to the cells in presence or not of the rpm BGC inducer IPTG (FIGS. 14A and B). […] Subsequently, in order to investigate the effect of the amino group on the benzoic acid, 3,4-DHBA was fed to both strains (FIGS. 14 C and D). […] It can therefore be concluded that the amino group is crucial for the bioactivity of rupshomycin.

[4] = tested on: X. indica ΔrpmM-O mutant (strain VII); experiment: Growth curve of X. indica ΔrpmM-O mutant (strain VII) with fed benzoic acid derivative; format: cell-based, Xenorhabdus indica
Experimental: To elucidate the influence of rpmM-O on biosynthesis, they were deleted together bases on pAR20 with the synthetic dsDNA fragments used for CRISPR/Cas12 mediated genome editing specific HA-L and R SEQ ID NOs 177-178 The resulting mutant ΔrpmM-O was then analysed for production and growth. Also with the addition of 3,4-AHBA, no growth and thus no production could be observed (FIG. 12 VII).
as §3

proteasome = conditions: role: inhibitor; cited from earlier work

SMILES: Nc1cc(C(=O)O)ccc1O [3,4-AHBA, 3-amino-4-hydroxy benzoic acid]
- growth [1]: no significant growth of the culture was observed compared to the empty vector control
- growth [2]: severe growth defect of the culture
- growth [3]: significant growth of the culture compared to the empty vector control
- growth (X. indica strain V): no particular growth differences were observed
- growth ([4]; 3,4-AHBA fed, rpm BGC induced, 96 well microtiter plate, 24 hours): culture dies after induction; also recorded: no growth; also recorded: a weak growth was observed in the first 3 hours, which then quickly collapsed and fell below the optical density of the starting point of the experiment

SMILES: O=C(O)c1ccc(O)c(O)c1 [3,4-DHBA]
- growth ([4]; 3,4-DHBA fed, induced vs non-induced culture): did not lead to the complete death of the ΔrpmM-O culture, but to a growth deficiency compared to the non-induced culture

SMILES: CC(C)CCCCC/C=C/C=C/C(=O)N[C@H](C(=O)N[C@H]1CC(O)CCNC(=O)/C=C/C(C)NC1=O)[C@@H](C)O (some centres unmarked) [cepafungin I]
- proteasome inhibition (proteasome): potent proteasome inhibitors

SMILES: CCCCCCC/C=C/C=C/C(=O)N[C@H](C(=O)N[C@H]1C[C@@H](O)CCNC(=O)/C=C/[C@H](C)NC1=O)[C@@H](C)O [glidobactin A]
- proteasome inhibition (proteasome): potent proteasome inhibitors
